Source: publication PMC8305652, “Copper(II) Complexes Containing Natural Flavonoid Pomiferin Show Considerable In Vitro Cytotoxicity and Anti-inflammatory Effects” (International Journal of Molecular Sciences, 2021)

Assays:
osteosarcoma (HOS) = experiment: in vitro cytotoxicity, MTT assay; type: cell-based, human; settings: mean ± SD, at least three independent experiments
[1] = tested on: NF-κB/AP-1 in THP-1-XBlue-MD2-CD14 cells; experiment: LPS-stimulated NF-κB/AP-1 activity, SEAP reporter; type: cell-based, human; settings: read 24 h after LPS; for inhibition of LPS-stimulated NF-κB/AP-1 activation: complexes applied at 200 nM and 50 nM, 1 h pre-treatment
Procedure: The activity of transcription factors NF-κB/AP-1 was evaluated using the THP-1-XBlue^TM-MD2-CD14 cell line [obtained from Invivogen (San Diego, CA, USA)], expressing an NF-κB/AP-1-inducible secreted embryonic alkaline phosphatase (SEAP) reporter gene, as was described previously. The complexes 1–5 were applied to the cells at the concentrations of 200 nM and 50 nM, pomiferin (at 200 nM), and a reference drug prednisone at 1 μM, respectively. Lipopolysaccharide (LPS) from E. coli 0111:B4 (Sigma-Aldrich) dissolved in PBS was used to trigger an inflammation-like reaction. The activity of the SEAP was determined by Quanti-Blue^TM reagent (Invivogen, San Diego, CA, USA) according to the manufacturer’s instructions 24 h after lipopolysaccharide stimulation. The activity of NF-κB/AP-1 was determined spectrophotometrically using the FLUOstar Omega microplate reader (BMG Labtech, Ortenberg, Germany) at 655 nm and compared with that of the vehicle.

[2] = tested on: TNF-α in differentiated THP-1 macrophages; experiment: TNF-α secretion, ELISA; type: cell-based, human; settings: 200 nM, 1 h pre-treatment, LPS 1 µg/mL, 24 h
Procedure: Differentiated THP-1 macrophages (see above) were pre-treated with either 200 nM solutions of the tested complexes, or 200 nM solution of prednisone dissolved in 0.1% DMF or the vehicle (0.1% (v/v) DMF solution) for 1 h, as described previously. The concentration of TNF-α was measured using a Human TNF-α ELISA Kit (Diaclone, Besançon, France), according to the manufacturer’s manual. Each experiment was conducted in triplicate.

[3] = tested on: primary culture of human hepatocytes (Hep); experiment: toxicity against primary culture of human hepatocytes; type: cell-based; settings: tested range 0.1–100 μM
[4] = tested on: prostate adenocarcinoma (PC-3); experiment: in vitro cytotoxicity, MTT assay; type: cell-based, human; settings: mean ± SD, at least three independent experiments
Procedure: (§1) The testing was performed on the following human cancer cell lines: breast adenocarcinoma (MCF-7), osteosarcoma (HOS), lung adenocarcinoma (A549), prostate adenocarcinoma (PC-3), ovarian carcinoma (A2780), cisplatin-resistant ovarian carcinoma (A2780R) and colorectal adenocarcinoma (Caco-2) obtained from ATCC collection of cell lines and cultivated according to producer’s instructions.

[5] = tested on: cisplatin-resistant ovarian carcinoma (A2780R); experiment: in vitro cytotoxicity, MTT assay; type: cell-based, human; settings: mean ± SD, at least three independent experiments
Procedure: as §1

[6] = tested on: ovarian carcinoma (A2780); experiment: in vitro cytotoxicity, MTT assay; type: cell-based, human; settings: at least three independent experiments
Procedure: as §1

[7] = tested on: lung adenocarcinoma (A549); experiment: in vitro cytotoxicity, MTT assay; type: cell-based, human; settings: at least three independent experiments
Procedure: as §1

[8] = tested on: breast adenocarcinoma (MCF-7); experiment: in vitro cytotoxicity, MTT assay; type: cell-based, human; settings: at least three independent experiments
Procedure: as §1

pUC19 plasmid DNA = experiment: nuclease-like activity, plasmid DNA cleavage; type: biochemical; settings: for plasmid DNA nicked to OC-form: 10 µM; for cleavage of plasmid DNA: 300 µM; for DNA cleavage in the presence of ROS scavengers (KI, NaN3, DMSO): 0.66 mM H2O2, scavengers equimolar to complex; for effectivity of plasmid DNA cleavage with H2O2: order 2 ≈ 4 > 1
A2780 cells [9] = experiment: mitochondrial membrane potential, MITO-ID flow cytometry; type: cell-based, human; settings: A2780, 15 µM, 24 h; compared with cisplatin
Procedure: After 24 h, the cells were washed once with PBS (0.1 M, pH 7.4), detached with trypsin (0.25% in ethylenediaminetetraacetic acid (EDTA), Sigma-Aldrich), and resuspended in 500 µL of culture medium. Then the staining was performed using MITO-ID® Membrane potential detection kit (Enzo Life Sciences, Farmingdale, NY, USA) according to the manufacturer’s protocol and samples were measured in three independent experiments, each time in duplicates on BD FACSVerse flow cytometer (Becton Dickinson, Franklin Lakes, NJ, USA), while at least 10^4 events were recorded for each sample.

A2780 cells [10] = experiment: cell cycle analysis by flow cytometry; type: cell-based, human; settings: A2780, 15 µM, 24 h
Procedure: Human ovarian cancer cell line A2780 (Sigma, Darmstadt, Germany) were used for this study. Cells were cultivated at 37 °C under a 5% CO2 atmosphere in an RPMI 1640 medium (Sigma Aldrich, Darmstadt, Germany) supplemented with (the final concentrations in medium): L-glutamine (2 mM), fetal bovine serum (FBS, 10%) and PenStrep (5 U penicillin, 50 µg streptomycin/mL).
After 24 h, the cells were washed once with PBS (0.1 M, pH 7.4) and cell cycle analysis was performed according to the protocol of BD Cycletest^TM Plus DNA kit (Becton Dickinson, Franklin Lakes, NJ, USA). Measurements were performed using BD FACSVerse flow cytometer (Becton Dickinson, Franklin Lakes, NJ, USA) in 3 independent experiments, each done in duplicate, while at least 5 × 10^3 events were recorded for each sample.

A2780 cells [11] = experiment: Annexin V/propidium iodide cell death assay, flow cytometry; type: cell-based, human; settings: 24 h; for Annexin V +/PI + cells (late apoptotic/secondary necrotic) / Annexin V +/PI − cells (early apoptotic): A2780, 15 µM, mean of three experiments
Procedure: Both methods were performed according to the manufacturers’ protocols with 1 modification in the caspase induction assay, which was the use of the CellEvent^TM Caspase-3/7 Green Detection Reagent only for detection of Caspase-3/7 activation. […] After 24 h, the cells were washed once with PBS (0.1 M, pH 7.4), detached with trypsin (0.25% in ethylenediaminetetraacetic acid (EDTA), Sigma-Aldrich), resuspended in 500 µL of the culture medium and divided into 2 separate tubes, the first for apoptosis assay and the second one for caspase activation analysis. After staining with appropriate dyes, samples were analyzed on a BD FACSVerse flow cytometer (Becton Dickinson, Franklin Lakes, NJ, USA) in 3 separate experiments, while at least 10^4 events were recorded for each sample prepared in duplicate.

[12] = tested on: colorectal adenocarcinoma (Caco-2); experiment: in vitro cytotoxicity, MTT assay; type: cell-based, human; settings: at least three independent experiments
[13] = water-containing medium (10% DMF), 37 °C, 1 h

Row | Molecule | IC50 (osteosarcoma (HOS)) | effect on LPS-stimulated NF-κB/AP-1 activity at 50 nM [1] | inhibition of LPS-stimulated NF-κB/AP-1 activation [1] | secretion of TNF-α [2] | IC50 [3] | IC50 [4] | IC50 [5] | IC50 ([6]; mean ± SD) | IC50 ([7]; mean ± SD) | IC50 ([8]; mean ± SD) | damage of mitochondrial function (membrane potential) (A2780 cells [9]) | Annexin V +/PI + cells (late apoptotic/secondary necrotic) (A2780 cells [11]) | Annexin V +/PI − cells (early apoptotic) (A2780 cells [11]) | plasmid DNA nicked to OC-form (pUC19 plasmid DNA; [13]) | cleavage of plasmid DNA (pUC19 plasmid DNA; [13]) | DNA cleavage in the presence of ROS scavengers (KI, NaN3, DMSO) (pUC19 plasmid DNA) | effectivity of plasmid DNA cleavage with H2O2 (pUC19 plasmid DNA; 0.66 mM H2O2) | IC50 ([12]; mean ± SD) | other results
1 | (3-(3,4-dihydroxyphenyl)-8,8-dimethyl-6-(3-methylbut-2-en-1-yl)-4H,8H-benzo[1,2-b:3,4-b′]dipyran-4-one-5-olato-κ^2O4:O5)(dipyrido[3,2-a:2′,3′-c]phenazine–κ^2N4:N5)copper(II) nitrate methanol solvate [Complex 5] | 2.4 ± 0.9 µM | active | able to inhibit | decreased its production | > 100 µM | 3.3 ± 0.1 µM | 2.2 ± 0.5 µM | 2.5 ± 0.9 µM | 3.1 ± 0.2 µM | 3 ± 0.5 µM |  |  |  |  |  |  |  |  | 
2 | CC(C)=CCc1c2c(c3occ(-c4ccc(O)c(O)c4)c(=O)c3c1O)C=CC(C)(C)O2 [pomiferin, 3-(3,4-dihydroxyphenyl)-5-hydroxy-8,8-dimethyl-6-(3-methylbut-2-ene-1-yl)-4H,8H-benzo[1,2-b:3,4-b′]dipyran-4-one] |  | slightly increased |  |  |  |  |  |  |  |  | strong ability | 49.0 ± 1.9% | 10.0 ± 0.1% |  |  |  |  |  | IC50 (osteosarcoma (HOS); Homo sapiens): 20.7 ± 0.5 µM; lowering of the portion of OC-form formed after addition of hydrogen peroxide (pUC19 plasmid DNA; 0.66 mM H2O2): ca. 20%; effect on supercoiled CCC-form of plasmid DNA (pUC19 plasmid DNA; [13]): did not affect; cells in the S phase of the cell cycle (A2780 cells [10]; untreated control 21.4 ± 0.8%): 26 ± 0.9%; viability at 15 µM (A2780 cells [11]; Homo sapiens, A2780, 15 μM, Figure 3, one out of three independent experiments, read-out: Annexin - / PI - (viable cells)): 37.1%; IC50 ([3]; Hepatocyte): > 50 µM; IC50 ([4]; Homo sapiens): 18.5 ± 0.7 µM; IC50 ([5]; Homo sapiens): 4.3 ± 1.3 µM; IC50 ([6]; Homo sapiens, A2780, mean ± SD): 8.4 ± 2 µM; IC50 ([7]; Homo sapiens, A549, mean ± SD): 21.2 ± 1.4 µM; IC50 ([8]; Homo sapiens, MCF7, mean ± SD): 22 ± 0.1 µM; IC50 ([12]; Homo sapiens, Caco-2, mean ± SD): 19.8 ± 2.4 µM
3 | CC(C)=CCc1c2c(c3occ(-c4ccc(O)c(O)c4)c(=O)c3c1[O-])C=CC(C)(C)O2.CO.O=[N+]([O-])[O-].[Cu+2].c1ccc(-c2ccnc3c2ccc2c(-c4ccccc4)ccnc23)cc1 [Complex 4, (3-(3,4-dihydroxyphenyl)-8,8-dimethyl-6-(3-methylbut-2-en-1-yl)-4H,8H-benzo[1,2-b:3,4-b′]dipyran-4-one-5-olato-κ^2O4:O5)(4,7-diphenyl-1,10-phenanthroline–κ^2N:N)copper(II) nitrate methanol solvate] |  |  | able to inhibit | did not affect the TNF-α synthesis | > 100 µM | 13 ± 1.1 µM | 6.6 ± 2.3 µM | 12.8 ± 3.1 µM | 8.7 ± 0.8 µM | 16 ± 1.1 µM | strong ability | 93.3 ± 2.9% |  | ca. 30% | cleave the DNA completely to small fragments | not affected by the addition of the ROS scavengers | comparable with the effectivity of copper sulphate pentahydrate | 22.9 ± 12.9 µM | cells in G0/G1 phase (A2780 cells [10]; control 58.4 ± 0.5%): 62.1 ± 1.2%
4 | CC(C)=CCc1c2c(c3occ(-c4ccc(O)c(O)c4)c(=O)c3c1[O-])C=CC(C)(C)O2.Cc1ccnc(-c2cc(C)ccn2)c1.O.O.O=[N+]([O-])[O-].[Cu+2] [Complex 2, (3-(3,4-dihydroxyphenyl)-8,8-dimethyl-6-(3-methylbut-2-en-1-yl)-4H,8H-benzo[1,2-b:3,4-b′]dipyran-4-one-5-olato-κ^2O4:O5)(4,4′-dimethyl-2,2′-bipyridine–κ^2N:N)copper(II) nitrate dihydrate] | 21.1 ± 1.6 µM |  | able to inhibit | decreased its production | > 100 µM | > 50 µM | 5.3 ± 1.1 µM | 5.4 ± 2.4 µM | 20.9 ± 0.9 µM | 29.6 ± 2 µM | strong ability | 19.8 ± 0.7% | 9.2 ± 0.8% | ca. 30% | cleave the DNA completely to small fragments | not affected by the addition of the ROS scavengers | comparable with the effectivity of copper sulphate pentahydrate | 5.1 ± 1.6 µM | cells in G2/M phase (A2780 cells [10]; control 20.1 ± 0.4%): 21.9 ± 0.8%
